Literature values as cited in patent US7390809B2, “Beta-amino heterocyclic dipeptidyl peptidase inhibitors for diabetes” (Merck & Co., Inc., priority 2002, dated 2008).
Values belong to the molecule of their own block, whether it stands above or below them.

Columns and labels:
[1] = system: cardiac allograft; details: rats; survival doubled from day 7
[2] = molecular target: T1, DP-IV (Homo sapiens, UniProt P27487)
T1 construct: GRF is rapidly degraded in plasma to GRF[3-44]

[3] = system: hematopoiesis; details: mouse, cyclophosphamide-induced neutropenia

T1 sequence (P27487 whole entry): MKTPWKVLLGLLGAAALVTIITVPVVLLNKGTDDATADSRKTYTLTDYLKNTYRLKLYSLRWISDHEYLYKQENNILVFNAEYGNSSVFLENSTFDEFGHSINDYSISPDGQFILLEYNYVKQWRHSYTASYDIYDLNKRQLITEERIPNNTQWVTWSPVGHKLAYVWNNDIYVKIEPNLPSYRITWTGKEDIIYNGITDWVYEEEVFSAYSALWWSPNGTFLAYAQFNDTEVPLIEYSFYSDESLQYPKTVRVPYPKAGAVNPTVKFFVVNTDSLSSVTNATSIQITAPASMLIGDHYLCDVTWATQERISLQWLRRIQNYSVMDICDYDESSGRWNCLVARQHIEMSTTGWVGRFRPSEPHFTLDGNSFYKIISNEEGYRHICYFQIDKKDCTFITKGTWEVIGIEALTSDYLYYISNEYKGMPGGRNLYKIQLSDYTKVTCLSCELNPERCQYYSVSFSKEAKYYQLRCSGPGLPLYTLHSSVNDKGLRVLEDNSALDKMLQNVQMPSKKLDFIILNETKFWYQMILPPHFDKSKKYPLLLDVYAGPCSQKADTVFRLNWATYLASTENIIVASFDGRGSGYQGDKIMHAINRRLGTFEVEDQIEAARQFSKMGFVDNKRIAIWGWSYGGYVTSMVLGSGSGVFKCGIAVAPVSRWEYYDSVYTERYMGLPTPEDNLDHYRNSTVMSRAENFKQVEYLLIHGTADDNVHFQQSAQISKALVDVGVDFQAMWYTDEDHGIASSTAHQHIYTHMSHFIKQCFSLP

Molecule: CC(C)N1CCC(c2ccccc2)(c2ccccc2)CC1 [Prodipine, Pro-Pro-diphenyl-phosphonate]
- cardiac allograft survival [1]: 14 day

- degradation of GRF in plasma to GRF[3-44] [2]: prevented
Molecule: diprotin A

Molecule: CC(C)[C@H](N)C(=O)N1CCC[C@H]1B(O)O [Val-Boro-Pro]
- effect on hematopoiesis [3]: stimulated hematopoiesis
